Source: patent US12135326B2 (priority 2019, dated 2024)
“And” between values parts separate entries of the source, which are not always exact repeats. Equal entries are not always repeated.

Experiments:
WT α-HL nanopore [1] = molecular target: T1, WT α-HL nanopore (Staphylococcus aureus, UniProt P09616); format: binding
WT α-HL nanopore [2] = molecular target: T1, WT α-HL nanopore; format: binding; remark: listed apart in the source

T1 sequence (P09616 27-319 limits assumed): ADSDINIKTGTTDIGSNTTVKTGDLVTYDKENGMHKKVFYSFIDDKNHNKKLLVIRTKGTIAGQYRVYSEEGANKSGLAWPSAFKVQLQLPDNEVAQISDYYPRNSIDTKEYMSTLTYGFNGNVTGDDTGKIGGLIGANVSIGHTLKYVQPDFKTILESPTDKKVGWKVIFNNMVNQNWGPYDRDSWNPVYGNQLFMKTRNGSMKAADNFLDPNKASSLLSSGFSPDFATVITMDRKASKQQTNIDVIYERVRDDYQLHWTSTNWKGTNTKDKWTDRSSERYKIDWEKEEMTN

## 5′-GATAGTGAGCCAAATTTAAA-3′ [oligomeric ssDNA]
WT α-HL nanopore [1]
  mean value of % F (blockade level % Fb, center value±FWHM): 0.289±0.175
  sensing / translocation through α-HL nanopore by DOP (in words): able to pass through the α-HL nanopore

## Trimethyl-β-cyclodextrin [TriM-β-CD]
WT α-HL nanopore [1]
  1/τoff: 2.515 ± 0.440 s⁻¹ and 2.437 ± 0.449 s⁻¹ and 2.953 ± 0.616 s⁻¹ and 3.640 ± 0.330 s⁻¹
  mean Fp (mean blockage depth): 0.078±0.010
  mean τoff (dwell time constant): 0.347 ± 0.067 s
WT α-HL nanopore [2]
  Ip (mean blockage depth): 0.065±0.002
  τoff: 0.386 ± 0.392 s
